# System: BV173 cells
# Test: Cell cycle analysis by PI staining and flow cytometry (FACS method b)
# Type: cell-based, human
# Conditions: BV173, PI staining
# Procedure: 150,000 cells were seeded in 12 well plate and incubated for 2 h for adaption. Cells were harvested on ice and prepared for FACS analysis (following method b). The FACS blots were generated using FACS diva software. n=1
# After harvesting the cells on ice and washing them with 1 ml cold PBS, the Pellet were fixed for 1 h in 80% Ethanol by −20° C. After centrifugation the supernatant was discarded and the pellet was resuspended in 333 μl PBS with 10 μg RNase. The cells were incubated 1 h at room temperature with RNase before adding propidium iodide to a final concentration of 16.4 μg/ml and measured by flow cytometry (BD FACS Canto II).
smiles,measurement,value
"CN1C(=O)C2CN(Cc3c2c2ccccc2n3Cc2ccc(C(=O)NO)cc2)C1=O (centres unmarked) [MARB1, N-Hydroxy-4-((4-methyl-3,5-dioxo-3,4,5,6-tetrahydro-2,6-methano[1,3]diazocino[5,6-b]indol-11(1H)-yl)methyl)benzamide]",changes in the cell cycle,no changes in the cell cycle
same,subG1 population,no increase
